Patent publication US9034793B2, “Use of ribose to enhance plant growth” (Bioenergy, Inc., priority 2002, dated 2015)
Values joined by “and” are separate entries in the source; they are usually repeats but may differ in a detail not shown here. Equal values may be shown once.

Experiments:
cut flower = conditions: storage solution containing the compound; cited from earlier work
bean seeds [1] = assay: Root growth assessment (Example 3); type: in vivo; conditions: for Root appearance: 2 weeks, compared with water treated roots
Source text: Identical sized pots, containing the same consistency of soil media, were used in assessing root growth. Bean seeds of similar size were chosen. One seed was planted in each pot. The depth in the soil for each seed that was planted was the same. Paired pots (total of 3 pairs, 6 pots), each containing one bean seed, were used. One pair of pots received 2 teaspoons of water every other day (Group A). The second pair of pots received a low Ribose solution (1 teaspoon of D-ribose in 16 oz of water), each pot received 2 teaspoons of this low dose of Ribose every other day (Group B). The final pair of pots received a higher dose of Ribose (1 teaspoon of D-ribose in 4 oz of water), each pot received 2 teaspoons of this higher dose of Ribose every other day (Group C). In each pair of pots, roots were examined at week 1 and 2, by removing the roots of one pot only in each group at the designed test time point with soil emersion in a bucket of water. At week 2 all remaining pots had shoots emerging from the top soil. The roots were weighed and measured for length. […] This discrepancy expanded when the roots were analyzed at 2 weeks. […] The weight of the roots treated with high dose Ribose were appreciably less in weight than both the water and low dose Ribose treated groups.

[2] = tested on: plants grown from seed (5 seeds per plot); assay: Plant feeding with ribose for growth (Table 1); type: in vivo, Hosta (H. plantaginea grandiflora); conditions: for Unsprouted: of 5 seeds per plot
Source text: (§1) Hosta (H. plantaginea grandiflora) plants were transplanted. The protocol was designed such that half of the plants were supplied with water alone and half of the plants received a ribose based solution, in which powdered D-ribose was mixed in water. All plants were transplanted at the same level in the soil and in like soil. All plants were watered at the same times of day, mid-morning and at dusk. Each plant received the same amount of water/watering (½ liter water at each watering). Results of plant growth data following transplantation are graphically depicted in FIGS. 1 and 2. [table]

kohlrabi (K) = assay: Transplants in garden, growth and hardening after transplantation: kohlrabi; type: in vivo
Source text: as §1

beans (B) = assay: Transplants in garden, growth and hardening after transplantation: beans; type: in vivo, bean
Source text: as §1

bean seeds [3] = assay: Fertilization with ribose combined with nitrogen, phosphorus, potassium; type: in vivo; conditions: ribose combined with the fertilizers nitrogen, phosphorus, and potassium
Method: D-ribose plus nitrogen, nitrogen alone, or placebo was administered to bean seeds and measurements of growth and yield was made as in Example 2. D-ribose plus phosphorus, phosphorus alone, or placebo was administered to bean seeds and measurements of growth and yield was made as in Example 2. D-ribose plus potassium, potassium alone, or placebo was administered to bean seeds and measurements of growth and yield was made as in Example 2. D-ribose plus the combination, the combination alone, or placebo was administered to bean seeds and measurements of growth and yield was made as in Example 2.

[4] = Week 1 following seed implantation
[5] = Week 2, plants cut off above the soil, just the roots weighed
[6] = 29-Sep, first measure after transplant

**Q.** Which “Bloom life of a cut flower” value (cut flower) does the source give for CCSC[C@@H](O)[C@@H](O)[C@@H](O)C=O [5-deoxy-5-ethylthio-D-ribose] here?
**A.** extend bloom life

**Q.** What does the source list for O=C[C@H](O)[C@H](O)[C@H](O)CO [High Ribose, D-ribose]?
**A.** Root appearance (bean seeds [1]; listed as high dose Ribose): thick; Root Length (bean seeds [1]; [4]): 13.8 cm; Root Weight (bean seeds [1]; [4]): 1.46 gm; Root Length (bean seeds [1]; Week 2): 14.7 cm; Root Weight (bean seeds [1]; [5]): 0.26 gm; Root Weight (bean seeds [1]; Week 2, plants cut off above the soil, just the roots weighed, listed as high dose Ribose): less in weight than both the low dose Ribose and water groups

**Q.** What does the source list for O=C[C@H](O)[C@H](O)[C@H](O)CO [Low Ribose, D-ribose]?
**A.** Root appearance (bean seeds [1]; listed as low dose Ribose): thicker, shorter roots; Root Length (bean seeds [1]; [4]): 13.4 cm; Root Weight (bean seeds [1]; [4]): 1.55 gm; Root Length (bean seeds [1]; Week 2): 16.0 cm; Root Weight (bean seeds [1]; [5]): 1.01 gm

**Q.** With O=C[C@H](O)[C@H](O)[C@H](O)CO [R1, ribose] as the compound, how does the “Plant measures, Mean” value ([2]; 23 June, 5 seeds per plot) read?
**A.** 1.65 inches

**Q.** And the Unsprouted ([2]; 23 June)?
**A.** 2

**Q.** And the “#Plants/blossom” value ([2]; Measured 8 July)?
**A.** 1

**Q.** And the “Plant measures, Mean” value ([2]; Measured 8 July)?
**A.** 2.9 inches

**Q.** And the Kohlrabi plant measure (kohlrabi (K); 1-Nov, after transplant)?
**A.** 11 and 15.5 and 9.8 and 18

**Q.** What about the “Bean measure to the Y” value (beans (B); 1-Nov, after transplant) of the same compound?
**A.** 17 cm and 12 cm

**Q.** And the Bean overall height (beans (B); 1-Nov, after transplant)?
**A.** 33.5 cm and 18 cm

**Q.** And the “Bean measure to the Y” value (beans (B); 9-Sep, before moving)?
**A.** 9 cm and 10 cm and 6 cm

**Q.** And the “Bean measure to the Y” value (beans (B); 19-Oct, after transplant)?
**A.** 16 cm and 10 cm

**Q.** What about the “Bean measure to the Y” value (beans (B); [6]) of the same compound?
**A.** 14 cm and 9.5 cm

**Q.** With O=C[C@H](O)[C@H](O)[C@H](O)CO [R2, ribose] as the compound, how does the “Plant measures, Mean” value ([2]; 23 June, 5 seeds per plot) read?
**A.** 3.3 inches

**Q.** What about the Unsprouted ([2]; 23 June) of the same compound?
**A.** 1

**Q.** What about the “#Plants/blossom” value ([2]; Measured 8 July) of the same compound?
**A.** 3

**Q.** And the “Plant measures, Mean” value ([2]; Measured 8 July)?
**A.** 5.8 inches

**Q.** With O=C[C@H](O)[C@H](O)[C@H](O)CO [R3, ribose] as the compound, how does the “Plant measures, Mean” value ([2]; 23 June, 5 seeds per plot) read?
**A.** 6.05 inches

**Q.** What about the Unsprouted ([2]; 23 June) of the same compound?
**A.** 0

**Q.** What about the “#Plants/blossom” value ([2]; Measured 8 July) of the same compound?
**A.** 4

**Q.** What about the “Plant measures, Mean” value ([2]; Measured 8 July) of the same compound?
**A.** 9.3 inches

**Q.** What does the source list for O=C[C@H](O)[C@H](O)[C@H](O)CO [R4, ribose]?
**A.** Plant measures, Mean ([2]; 23 June, 5 seeds per plot): 8.45 inches; Unsprouted ([2]; 23 June): 0; Plant measures, measured to the Y, single plants ([2]; 23 June, planted 4 June, 2 tablespoons every other day (3x per week)): 6.5 inches and 8 inches and 8.25 inches and 9.5 inches and 10 inches; #Plants/blossom ([2]; Measured 8 July): 5; Plant measures, Mean ([2]; Measured 8 July): 11.1 inches; Plant measures, measured to the Y, single plants ([2]; Measured 8 July): 8.75 inches and 10 inches and 10.5 inches and 11.75 inches and 12 inches; Kohlrabi plant measure (kohlrabi (K); 1-Nov, after transplant): 16.5 and 19 and 22 and 21 and 15; Kohlrabi plant measure (kohlrabi (K); 9-Sep, before moving): 12 and 13 and 17 and 11; Kohlrabi plant measure (kohlrabi (K); 19-Oct, after transplant): 15 and 18 and 19.5 and 20 and 14.5; Kohlrabi plant measure (kohlrabi (K); [6]): 14 and 16 and 19 and 19.5 and 13; Bean measure to the Y (beans (B); 1-Nov, after transplant): 10 cm and 13 cm; Bean overall height (beans (B); 1-Nov, after transplant): 27 cm and 30 cm; Bean measure to the Y (beans (B); 9-Sep, before moving): 6 cm and 8 cm; Bean overall height (beans (B); 9-Sep, before moving): 21 cm and 22 cm; Bean measure to the Y (beans (B); 19-Oct, after transplant): 8.75 cm and 12 cm; Bean overall height (beans (B); 19-Oct, after transplant): 26 cm and 28 cm; Bean measure to the Y (beans (B); [6]): 7.5 cm and 10.5 cm; Bean overall height (beans (B); [6]): 24 cm and 26 cm

**Q.** Which “Root Length” value (bean seeds [1]; [4]) does the source give for O=C[C@H](O)[C@H](O)[C@H](O)CO [Ribose, D-ribose] here?
**A.** slightly shorter in length

**Q.** And the “Root Weight” value (bean seeds [1]; [4])?
**A.** heavier

**Q.** And the “Improvement over solutions of ribose alone” value (bean seeds [3])?
**A.** slight incremental improvements
